Data as given in US20260374792A1, “PHENYL-FREE BISCATIONIC QUATERNARY PHOSPHONIUM COMPOUNDS AS ANTIMICROBIAL AGENTS” (priority 2022, published 2026).
“Also recorded” adds a separate entry of the source.

Assays:
Format in all cases: cell-based
E. coli (MC4100) = assay: MIC against E. coli; conditions: Escherichia coli, 72 hours, 37 °C
Protocol: (§1) The term “minimum inhibitory concentration (MIC)” means the lowest concentration of an antimicrobial agent that will inhibit the visible growth of a microorganism after overnight incubation. MIC values against bacteria, for example, the Gram-positive Staphylococcus aureus and Enterococcus faecalis and the Gram-negative Escherichia coli and Pseudomonas aeruginosa were determined by standard methods. See also P. A. Wayne, Methods for Dilution Antimicrobial Tests for Bacteria that Grow Aerobically; Approved Standard, Ninth Edition, 2012, CLSI Document M07-A9, Vol. 32 No. 2.
(§2) Biological testing procedures were adapted from prior work by Melander and coworkers. For all biological assays, laboratory strains of methicillin-susceptible Staphylococcus aureus MSSA (SH1000), Staphylococcus aureus CA-MRSA (USA300-0114), Staphylococcus aureus HA-MRSA (ATCC 33591), Escherichia coli (MC4100), Enterococcus faecalis (OG1RF), Acinetobacter baumannii (ATCC 17978), were grown with shaking at 37 °C overnight from freezer stocks in 5 mL of the indicated media: SH1000, OG1RF, MC4100, USA300-0114, and ATCC 17978 were grown in BDTM Mueller-Hinton broth (MHB), whereas ATCC 33591 was grown in BDTM tryptic soy broth (TSB). The inoculum were then streaked onto Mueller-Hinton agar (MHA) plates and grown overnight at 37 °C. From the plates, single colonies were selected, diluted into 50 mL of fresh media and grown overnight at 37 °C with shaking for use in the MIC assays. Optical density (OD) measurements were obtained using a SpectraMax iD3 plate reader (Molecular Devices, United States).
(§3) Compounds were serially diluted two-fold from stock solutions (1.0 mM) to yield twelve 100 μL test concentrations, wherein the starting concentration of dimethyl sulfoxide (DMSO) was 2.5%. Overnight S. aureus, E. faecalis, E. coli, A. baumannii, USA300-0114 (CA-MRSA), and ATCC 33591 (HA-MRSA) cultures were diluted to ca. 10^6 CFU/mL in MHB or TSB and regrown to mid-exponential phase, as determined by optical density recorded at 600 nm (OD600). All cultures were then diluted again to ca. 10^6 CFU/mL and 100 μL were inoculated into each well of a U-bottom 96-well plate (Corning, 351177) containing 100 μL of compound solution. Plates were incubated statically at 37 °C for 72 hours upon which wells were evaluated visually for bacterial growth. The MIC was determined as the lowest concentration of compound resulting in no bacterial growth visible to the naked eye, based on the highest value in three independent experiments. Aqueous DMSO controls were conducted as appropriate for each compound.
(§4) The prepared library of biscationic amphiphilic compounds was assessed for performance as antibacterial disinfectants by determining the minimum inhibitory concentration (MIC) for each against a panel of bacteria. The bacteria selected for the study were chosen to evaluate the broad spectrum antimicrobial performance of the QPCs, and therefore, included both Gram-positive and Gram-negative bacterial strains, including those with known antimicrobial resistance mechanisms. These bacteria include the Gram-positive strains of methicillin-susceptible Staphylococcus aureus [MSSA; SH1000], community-acquired methicillin-resistant Staphylococcus aureus [CA-MRSA; USA 300-0114], hospital-acquired methicillin-resistant Staphylococcus aureus [HA-MRSA; ATCC 33591] and the […], Escherichia coli [MC4100], Acinetobacter baumannii [ATCC 17498] and Pseudomonas aeruginosa [PAO1].

E. faecalis (OG1RF) = assay: MIC against E. faecalis; conditions: Enterococcus faecalis, 72 h
Protocol: as §1, §2, §3, §4

MSSA (SH1000) = assay: MIC against methicillin-susceptible S. aureus (MSSA); conditions: Staphylococcus aureus; MSSA (SH1000); 72 hours, 37 °C; read-out: MIC
Protocol: as §1, §2, §3, §4

panel of bacteria = assay: MIC across the panel of bacteria (Gram-positive and Gram-negative); conditions: over the bacterial panel
Protocol: as §1, §2, §3, §4

P. aeruginosa (PAO1) = assay: MIC against P. aeruginosa; conditions: Pseudomonas aeruginosa; P. aeruginosa (PAO1); 72 hours, 37 °C; read-out: MIC
Protocol: as §1, §2, §3, §4

established biofilm = assay: Biofilm eradication (MBEC) over the strains tested; conditions: pegged-lid microtiter plate assay
Protocol: A regrowth assay was used to establish the MBEC of a compound to evaluate the antibiofilm activity.
Biofilm eradication experiments were performed using a pegged-lid microtiter plate assay to determine the MBEC values for compounds of interest, as previously described. […] Sci. Rep. 2017, 7, 2003; and Raval, Y. S., Flurin, L., Mohamed, A., Greenwood-Quaintance, K. E., Beyenal, H., & Patel, R. In Vitro Activity of Hydrogen Peroxide and Hypochlorous Acid Generated by Electrochemical Scaffolds Against Planktonic and Biofilm Bacteria. Antimicrob Agents Chemother. 2021, 65, e01966-20. Briefly, […] of mid-log phase culture diluted to ca. 10^6 CFU/mL in tryptic soy broth (TSB) was added to wells of plat-bottom 96-well plates (Thermo Scientific, 266120) and covered with 96-pegged lid (Thermo Scientific, 445497). […] MBEC values were determined as the lowest test concentration that resulted eradicated biofilm (i.e., wells displaying no turbidity in the final plate).
Pleased by the activity of the phosphonium compounds, the inventors sought to further investigate the antibacterial properties while comparing the effects of the heteroatom on activity. To do so, the inventors determined the minimum biofilm eradication concentration (MBEC) of bisQPC ^MeP2P-12,12 and analogous bisQAC 12(2)12 using a pegged-lid microtiter plate assay.

SMILES	MIC (E. coli (MC4100))	MIC (E. faecalis (OG1RF))	MIC (MSSA (SH1000))	antimicrobial activity / bioactivity (in words) (panel of bacteria)	MIC (P. aeruginosa (PAO1))	ability to eradicate established biofilm (in words) (established biofilm)
CCCCCCCCCCCC[N+](C)(C)CC[N+](C)(C)CCCCCCCCCCCC [12(2)12, reference compound]	2 µM	8 µM	2 µM	almost identical bioactivity across the bacterial panel	8 µM	ability to eradicate established biofilm against three of the strains tested
CCCCCCCCCCCC[P+](C)(C)CC[P+](C)(C)CCCCCCCCCCC [^MeP2P-12,12]	4 µM	4 µM	2 µM	single-digit micromolar activity; also recorded: almost identical bioactivity across the bacterial panel	8 µM	ability to eradicate established biofilm against three of the strains tested
